Measurements reported in the METLIN SMRT retention time set (Domingo-Almenara et al. 2019).

Assay: gradient 5% acetonitrile 3 min, to 50% in 2 min, to 85% in 15 min, held 3 min, 100 µL/min
Settings: column: Zorbax Extend-C18 2.1 x 50 mm; eluents: water / acetonitrile, 0.1% formic acid
Method in brief: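 The mobile phases were water and acetonitrile, each with 0.1% formic acid, pumped at 100 μL/min through a Zorbax Extend-C18 column (2.1 × 50 mm, 1.8 μm). Pure standards were injected as mixtures of ~100 molecules and detected by a quadrupole time-of-flight mass spectrometer in positive and negative ionization mode. Retention time came from computationally picked adduct peaks, each inspected by hand.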

| RP-LC retention time [s] | Structure (SMILES) |
| --- | --- |
| 817 | COc1ccc(OCc2noc(CNC(=O)c3cc(C)oc3C)n2)cc1 |
| 895 | CC(=O)N1c2ccc(S(=O)(=O)N3CCC(C(=O)Nc4cccc(Cl)c4C)CC3)cc2CC1C (stereo not drawn) |
| 963 | Cc1ccc2ncn(C3CCN(S(=O)(=O)c4cccc(Cl)c4)CC3)c(=O)c2c1 |
| 558 | O=S(=O)(NCC#CCN1CCc2ccccc2C1)c1cccs1 |
| 624 | CCC(CO)NCc1ccc(-c2ccccc2)o1 (stereo not drawn) |
| 638 | COc1ccc(NC2=NC(C)(CO)CS2)cc1 (stereo not drawn) |
| 788 | CCSc1nnc(-c2nn(C)c3c2CN(C(=O)c2cccc(Cl)c2)CC3)n1C |
| 944 | Cc1ccc(NC(=O)N2CCC(n3c(C(F)(F)F)nc4cccnc43)CC2)cc1F |
| 601 | COCCNC(=O)CC1CCN(C(=O)c2ccc3oc(C4CC4)nc3c2)CC1 |
| 772 | CS(=O)(=O)N1CCC(C(=O)N2CCC(COCc3ccccc3)CC2)CC1 |
| 836 | COc1cc(Cl)c(NC(=O)Cn2cc(-c3nnc(C)o3)c3ccccc32)c(OC)c1 |
| 938 | CCCn1cc(CCNS(=O)(=O)c2ccc3c(c2)CCC3)c2cccnc21 |
| 1010 | CCn1nnc(NCc2ccc(-c3cccc(Cl)c3)o2)n1 |
| 714 | CC1=C(c2ccccc2)S(=O)(=O)N=C1N1CCCN(C(=O)NC(C)C)CC1 |
| 559 | CCN(CC)CCCNC(=O)C(C)n1c2ccccc2c2cnn(C)c(=O)c21 (stereo not drawn) |
| 930 | CC1(C)C(=O)N(CC(=O)N2CCc3ccccc3C2)c2ccccc21 |
| 609 | O=C(Cn1c(=O)nc(-c2ccccc2)c2ccccc21)N1CCN(c2ccccn2)CC1 |
| 792 | Cc1ccc(-n2cc3c(N4CCCC(C(=O)NCCC5=CCCCC5)C4)ncnc3n2)cc1 (stereo not drawn) |
| 645 | Cc1occc1C(=O)N1CCC2(CC1)CC(C)(O)CCO2 (stereo not drawn) |
| 1080 | CCOc1ccc(N2C(=O)C3N=NN(Cc4nc(-c5cccc(Br)c5)no4)C3C2=O)cc1 (stereo not drawn) |
| 1030 | CCN1c2ccc(F)cc2C(=O)NC12CCN(C(=O)c1cc(F)cc(F)c1)CC2 |
| 801 | CCOCCCNc1ccc(-c2nnc(-c3ccc(C)cc3)o2)cn1 |
| 1040 | N#Cc1cccc(NC(=O)c2cccn2Cc2noc(-c3ccccc3)n2)c1 |

| RP-LC retention time [s] | Structure (SMILES) |
| --- | --- |
| 1230 | Cc1nc2cc(-c3noc(-c4ccc(Br)cc4)n3)ccc2o1 |
| 594 | CC1(C)C(=O)NCCN1C(=O)CN1C(=O)c2ccccc2C1=O |
| 608 | CCC(C)NC(=O)Cn1cnc2nc(N3CCCC(C(=O)NC)C3)sc2c1=O (stereo not drawn) |
| 665 | CN(C)C(=O)CN1C(=O)CCSc2ccccc21 |
| 762 | COc1ccc(-c2nnc(COc3ccc(NS(C)(=O)=O)cc3)o2)cc1 |
| 1110 | Cc1ccc(N2C(=O)C3N=NN(Cc4nc(-c5ccc(C)c(C)c5)no4)C3C2=O)cc1 (stereo not drawn) |
| 764 | CN1CCn2cc(S(=O)(=O)N3CCN(c4ccccc4)CC3)cc2C1=O |
| 581 | CCCCN(C)CCNC(=O)c1ccc(N2CCCC2=O)cc1 |
| 600 | O=C([C@@H]1C[C@H](Oc2cccnc2)CN1C(=O)CC1CCCC1)N1CCCC1 |
| 644 | CN1C(=O)[C@H]2CN(Cc3ccc(Cl)cc3F)C[C@H]2C1=O |
| 718 | CCOc1ccc(NC(=O)Cc2nnc(-c3ccc4ncccc4c3)o2)cc1 |
| 633 | O=C(O)c1nnn(Cc2ccccc2F)c1-c1cccnc1 |
| 777 | Cc1cc(C)c(NC(=O)CN2C(=O)NC3(CCCCC3)C2=O)c(C)c1 |
| 690 | Cc1nc2cc3c(cc2n1CC(=O)Nc1ccc(F)c(Cl)c1)OCCO3 |
| 660 | COc1ccc(NC(=O)C2c3cc(OC)c(OC)cc3C(=O)N(C)C2c2cccnc2)cc1Cl (stereo not drawn) |
| 589 | CCCNc1cc(N2CCC(CCC(=O)N(C)CCC)CC2)ncn1 |
| 594 | CC(C)NC(=O)c1cc(N2CCCC2)nc2ccccc12 |
| 1060 | Cc1ccc(CCNC(=O)C2CCCN(S(=O)(=O)c3cc(-c4noc(C)n4)cs3)C2)cc1 (stereo not drawn) |
| 683 | CN(CC1CCOC1)C(=O)c1ccc(F)c(F)c1 (stereo not drawn) |
| 722 | Cc1cccc(Cn2c(=O)n(CCNC(=O)c3cnccn3)c3ncccc32)c1 |
| 779 | COc1ncc(C(=O)NCc2cccc(Br)c2)cn1 |
| 1040 | COc1ccc2[nH]c(-c3ccccc3)cc2c1 |
| 1020 | COc1ccc(OC)c(CNC(=O)c2cc(-c3ccccc3)cn2C)c1 |

| RP-LC retention time [s] | Structure (SMILES) |
| --- | --- |
| 778 | CCc1ccccc1NC(=O)c1sc(C)nc1C |
| 613 | Cc1ccc2nc(CCNC(=O)Cn3nc(C(=O)N4CCCC4)c4ccccc43)[nH]c2c1 |
| 733 | CCn1c(-c2cccc(C(=O)NCc3cccs3)c2)nc2cccnc21 |
| 798 | O=C(NC1CCCCC1)c1ncoc1-c1ccccc1C(=O)N1CCCC1 |
| 639 | Nc1ccc2c(c1)CN1C(=O)c3ccccc3C1=N2 |
| 985 | O=c1c2sccc2n(Cc2nc(-c3ccccc3)no2)c(=O)n1Cc1ccccc1 |
| 662 | Cc1ccc(-c2cc3c(=O)n(Cc4noc(CN5CCN(C)CC5)n4)ccn3n2)cc1C |
| 742 | Cc1oc(C2CCN(C(=O)Cc3cccs3)CC2)nc1C(=O)N1CCSCC1 |
| 705 | c1ccc2c(c1)CCC[C@H]2Nc1nc2ccccc2[nH]1 |
| 713 | O=C(C1CCN(c2nc3cccnc3s2)CC1)N1CCCCC1 |
| 541 | Cc1nc(-c2ccncc2)nc2c1CCC(=O)N2CCc1ccccn1 |
| 712 | CCCCCC(=O)Nc1cc(-c2nc3ccccc3[nH]2)ccc1C |
| 628 | O=C(NCc1ccc(F)c(Cl)c1)c1cn2c(n1)CCCC2 |
| 924 | O=C(C1=CN(c2ccc(Br)cc2)c2cc(Cl)ccc2S1(=O)=O)N1CCOCC1 |
| 1120 | CCc1ccc(-n2nc(CO)c(C(=O)NC3CCCC3)n2)cc1 |
| 774 | O=C(Cn1cccc1-c1nnc(-c2ccccc2)o1)N1CCN(C(=O)c2ccco2)CC1 |
| 639 | CCc1cc(=O)n(CC(=O)N(CC)Cc2ccccc2)c(N)n1 |
| 601 | COc1cccc(NC(=O)C2(C)CCCCC(=O)N2)c1 (stereo not drawn) |
| 931 | Cc1c(F)cccc1NC(=O)c1cc2n(n1)CCCC2 |
| 674 | O=C(Cn1c(=O)c2nncn2c2ncccc21)N1CCN(c2ccccc2)CC1 |
| 770 | Cc1cc(Cl)ccc1NC(=O)CC1COc2ccccc2NC1=O (stereo not drawn) |
| 1060 | CCOC(=O)c1noc2nc(C)nc(NCc3ccccc3)c12 |
| 627 | N[C@H]1CCN(O)C1=O |

| RP-LC retention time [s] | Structure (SMILES) |
| --- | --- |
| 1050 | COc1ccc(-c2ncc3c(n2)CCN(S(=O)(=O)Cc2ccc(C)cc2)C3)cc1 |
| 630 | Cc1ccc(-c2noc(CCN3CCN(C)CC3)n2)cc1 |
| 747 | Cc1ccc2c(c1)C(O)(CC(=O)c1ccc(NC(=O)C(C)(C)C)cc1)C(=O)N2 (stereo not drawn) |
| 645 | COc1ccccc1C(CNC(=O)c1cc(=O)c2c(C)cc(C)cc2o1)N(C)C (stereo not drawn) |
| 663 | O=C(NCc1ccc(F)cc1)Nc1c(-c2ccc(F)cc2)nc2ccccn12 |
| 847 | O=C(NC1CCCCC1)C1CCN(Cc2cc3ccccc3n2Cc2cccc(Cl)c2)CC1 |
| 788 | Cn1nnc2cc(-c3noc(C4CC(=O)N(c5ccccc5)C4)n3)ccc21 (stereo not drawn) |
| 807 | CCOc1ccccc1N(CC)C(=O)C1CCCN(c2ncnc3c2nc2n3CCCCC2)C1 (stereo not drawn) |
| 740 | O=C(NCC1CCOCC1)Nc1ccccc1Br |
| 605 | CCCCn1c(CN2CCCC2)nc2cc(NC(=O)CC)ccc21 |
| 559 | CCC(=O)N1CCc2c(sc3ncnc(NCc4ccccn4)c23)C1 |
| 841 | O=C(CCCS(=O)(=O)Cc1ccccc1)Nc1nc2c(s1)Cc1ccccc1-2 |
| 761 | Cn1nc(-c2nc(C(C)(C)C)no2)ccc1=O |
| 1120 | Cc1ccc(NC(=O)Cn2c(C)nc3c(sc4nc(-c5ccccc5)ccc43)c2=O)cc1C |
| 1040 | CCOc1ccc(N2C=C(C(=O)OC)S(=O)(=O)c3ccc(Br)cc32)cc1 |
| 670 | Cc1noc2nc(CCC(=O)NCCCN3CCc4ccccc4C3)nc(N3CCCCC3)c12 |
| 1010 | Cc1ccc(C)c(N2CCN(c3ccnc(SCC(=O)Nc4ccccc4C)n3)CC2)c1 |
| 844 | COc1ccc(CNC2=NCCNC23CCN(S(=O)(=O)c2ccc(C(C)(C)C)cc2)CC3)cc1 |
| 824 | CCc1noc(-c2cccn2CC#N)n1 |
| 784 | O=C(Cn1ccc2sccc2c1=O)Nc1cc(F)cc(F)c1 |

| Structure (SMILES) | RP-LC retention time [s] |
| --- | --- |
| Cc1ccc(-c2ccc(N3CCCC(C(=O)N4CCC5(CC4)OCCO5)C3)nn2)cc1C (stereo not drawn) | 684 |
| COc1ccc(NC(=O)N2[C@H]3CC[C@@H]2c2cncnc2C3)cc1F | 649 |
| CC(C)(C)NCC(O)c1cc(Cl)c(N)c(C(F)(F)F)c1 (stereo not drawn) | 708 |
| Cc1cc(OCC(=O)N[C@@H](CC(C)C)C(=O)O)c2c3c(c(=O)oc2c1)CCCC3 | 894 |
